The results in this text go back to patent US4980349A, “Sulphonamides derived from diarylmethanes, the processes for preparing them and pharmaceutical compositions containing them” (SANOFI, priority 1986, dated 1990).

What is called LD50 is the dose expected to kill half of the subjects tested.

Series [1] concerns pain threshold of brewer's yeast inflamed rat hind foot. Nature of the series: Randall and Sellitto's test (analgesic activity). In kind it is in vivo. To be noted: first experiment, Table XII, read-out: percentage increase in the mean pain threshold; for change in vivo at 25 mg/kg: 25 mg/kg oral; for change in vivo at 50 mg/kg: 50 mg/kg oral; for change in vivo at 100 mg/kg: 100 mg/kg oral. The procedure, abridged:
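Rats had 0.1 ml 20% brewer's yeast suspension injected under the hind-foot plantar aponeurosis; compounds dosed orally by stomach tube 1 h before yeast. Pain threshold was the pressure eliciting foot withdrawal, read at the 4–6 h plateau; result is % increase in mean threshold versus untreated controls, 10 rats per group.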

The subject of series [2] is rat hind foot carragheenin-induced oedema. Nature of the series: Carragheenin-induced oedema test. To be noted: 3 h, first experiment, Table X, read-out: percentage inhibition of the inflammation; for change in vivo at 25 mg/kg: 25 mg/kg oral; for change in vivo at 50 mg/kg: 50 mg/kg oral; for change in vivo at 100 mg/kg: 100 mg/kg oral. Format: in vivo.
Another series in a line: Oral LD50 in rats. To be noted: rat, in vivo, male Wistar rats, 200-400 g, 14 days observation, read-out: approximate oral LD50. The protocol:
(§1) The compounds were suspended in a 3% strength solution of gum arabic so as to supply, in a volume of 2 ml for the rats, the equivalent of 50, 100, 200, 400 and 800 mg/kg, and, in a volume of 1 ml for the mice, 100, 200, 400, 800 and 1,600 mg/kg and, for 1573 and 1579, 3,200 mg/kg.
(§2) Gavage was performed by means of a metal tube, on batches of 5 animals for each series.
(§3) The animals were observed daily for 14 days.

Series [3] concerns foreign-body (sponge) granuloma in rats. Nature of the series: Experimental granuloma induced by foreign body, histological study. Format: in vivo, Wistar rats. To be noted: both doses (50 and 100 mg/kg) oral, 8 days; Table XI.
In series [4] the test system is rat hind foot kaolin-induced oedema. Put plainly: Kaolin-induced arthritis test, first experiment (decrease in inflammation, foot volume). Format: in vivo. To be noted: 1 h before kaolin, Table IX, read-out: percentage decrease in the inflammation; for change in vivo at 25 mg/kg: 25 mg/kg oral; for change in vivo at 50 mg/kg: 50 mg/kg oral; for change in vivo at 100 mg/kg: 100 mg/kg oral. A digest of the protocol:
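Kaolin (0.05 ml of sterile 10% suspension) injected into metatarsal flexor sheath of rat hind foot; compounds given orally by stomach tube 1 h before. Foot volume measured by plethysmometer during early oedema (maximal 4–6 h). Value is % decrease in inflammation versus controls, mean of 10 animals per dose.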

A further series is described as follows: Oral LD50 in mice. To be noted: mouse, in vivo, female Swiss CF mice, 20 g, 14 days observation, read-out: approximate oral LD50. The method, then:
as §1, §2, §3

Consider `O=C(c1ccccc1)c1cc([N+](=O)[O-])ccc1S(=O)(=O)NCCCN1CCOCC1` [Compound 1361], for which the change in vivo at 25 mg/kg in series [1] is 20%; in series [2] it was -15%; in series [4] it was -25%. For the same compound, the change in vivo at 50 mg/kg in series [1] is 25%; in series [2], -25%; in series [4] it was -30%. Moreover, the change in vivo at 100 mg/kg in series [1] was 45%; in series [2], -45%; in series [4], -48%. Moreover, the LD50 at 336 h in the series “Oral LD50 in rats” is greater than 800 mg/kg; in the series “Oral LD50 in mice” it was greater than 1600 mg/kg. Further, the “histological study of the granuloma” value in series [3] is “anti-inflammatory activity is exhibited”.

As for `O=C(O)CCCNS(=O)(=O)c1ccc(Cl)cc1C(=O)c1ccccc1Cl` [Compound 1573], in series [1], the change in vivo at 25 mg/kg was 20%, the change in vivo at 50 mg/kg amounted to 35% and the change in vivo at 100 mg/kg came out at 60%. For the same compound, in series [2], the change in vivo at 25 mg/kg was -17%, the change in vivo at 50 mg/kg is -28% and the change in vivo at 100 mg/kg was -50%. Also, the “histological study of the granuloma” value in series [3] was “the activity is very distinct”. For the same compound, in series [4], the change in vivo at 25 mg/kg is -15%, the change in vivo at 50 mg/kg is -30% and the change in vivo at 100 mg/kg is -52%. Moreover, in “Oral LD50 in mice”, the LD50 at 336 h was greater than 3200 mg/kg.
